These results are taken from patent US20240336610A1, “3CL PROTEASE SMALL-MOLECULE INHIBITOR FOR TREATING OR PREVENTING CORONAVIRUS INFECTION, AND USE THEREOF” (THE GLOBAL HEALTH DRUG DISCOVERY INSTITUTE, priority 2021, published 2024).

Broadly, the IC50 is the concentration needed to halve the response being measured. By CC50 is commonly meant the concentration giving 50% cytotoxicity. High values mean lower toxicity to the cells, low ones greater toxicity to the cells. Broadly, the EC50 is the midpoint of the concentration-response curve. One may read the AUC(0-inf) as total exposure, with the tail of the curve extrapolated. High values mean high exposure, low ones low exposure. As a reminder, the AUC(0-t) is exposure summed from dosing to a finite time, without extrapolation to infinity. Low readings indicate less exposure, high ones more exposure. One may read the Cmax as the maximum level reached in the sampled fluid or tissue. Usually half-life stands for the time in which the quantity being followed falls by half. Read a low half-life as fast loss.

Where a name gives a salt, the structure may show the parent alone. Read-outs that look alike come from different tables or passages of the source. Where only a bound is given, the exact number is not on record here.

The target of data set [1] is SARS-CoV-2 main protease (3CLpro) (Severe acute respiratory syndrome coronavirus 2 (2019-nCoV) (SARS-CoV-2), UniProt P0DTD1). The data set can be described thus: Enzyme activity test. Type of data set: biochemical. Particulars: 200 nM recombinant SARS-CoV-2 main protease, 15 μM fluorescent substrate, pH 7.3.
Data set [2] in a line: Toxicity testing in uninfected cells. Type of data set: cell-based. Particulars: human, uninfected Hela-ACE cells, Cell-Titer Glo. The protocol: (§1) Toxicity Testing in Uninfected Cells
(§2) The compound was transferred to a 1536-well plate (Corning No. 9006BC), and then Hela-ACE cells were added (cell density: 600 cells/5 microliter of medium MEM with 2% FBS). After the assay plate was incubated at 37° C. in 5% CO2 for 48 hours, cell viability was tested. 2 μL of 50% Cell-Titer Glo (Promega No G7573) was diluted in water and added to a cell assay plate, and then a value on En Vision Plate Reader (Perkin Elmer) was read.

In a further data set the test system is SARS-CoV-2. The experiment in a line: SARS-CoV-2/Hela-ACE test. Particulars: read-out: SAR-CoV-2 EC50. Type of data set: cell-based.
Data set [3] can be described thus: Oral pharmacokinetics in rats. Particulars: rat, blood, male SD rats, 15 mg/kg. The data set is classed as in vivo. Here is the method: Test Example 2: Measurement of Oral Pharmacokinetics in Rats
Male SD rats were orally administered with 15 mg/kg of the compound in the examples of the present disclosure, and blood samples were collected at 0.083, 0.25, 0.5, 1, 2, 4, and 8 hours respectively. After the samples were treated with anticoagulant EDTA-K2 and acetonitrile and centrifuged, a drug concentration analysis was conducted using LC/MS/MS.

A further data set relates to Hela-ACE cells. The data set can be described thus: Toxicity testing in uninfected cells. The data set is classed as cell-based. Particulars: 48 hours, Cell-Titer Glo. Here is the method: as §1, §2
[4] abbreviates: Severe acute respiratory syndrome coronavirus 2, Hela-ACE cells infected with SARS-CoV-2 (USA-WA1/2020), 48 hours.
Where [5] appears, read: Severe acute respiratory syndrome coronavirus 2, 48 h.

As for `CC(=O)N[C@H](C(=O)N1C[C@H]2[C@@H]([C@H]1C(=O)NC(C#N)c1cncc(Br)c1)C2(C)C)C(C)(C)C` (stereo partly drawn) [GDI-003, (1R,2S,5S)-3-((S)-2-acetamido-3,3-dimethylbutyryl)-N-((5-bromopyridin-3-yl)(cyano)methyl)-6,6-dimethyl-3-azabicyclo[3.1.0]he xane-2-carboxamide], the IC50 in data set [1] came out at 50 nM. The CC50 at 48 h in data set [2] was more than 39800 nM. Further, the EC50 in the data set with SARS-CoV-2 (setting [4]) is 1250 nM.

In the case of `Cc1ccc(S(=O)(=O)N[C@H](C(=O)N2C[C@H]3[C@@H]([C@H]2C(=O)NC(C#N)c2cncc(C(F)(F)F)c2)C3(C)C)C(C)(C)C)cc1` (stereo partly drawn) [GDI-016, (1R,2S,5S)-N-(cyano(5-(trifluoromethyl)pyridin-3-yl)methyl)-3-((S)-3,3-dimethyl-2-((4-methylphenyl)sulfonamido)butanoyl)-6,6-dimet hyl-3-azabicyclo[3.1.0]hexane-2-carboxamide], the IC50 in data set [1] worked out at 31 nM. The compound further came in with a CC50 at 48 h in data set [2] of more than 39200 nM. In the data set on SARS-CoV-2 (setting [4]), the concentration giving a half-maximal response (EC50) is 32 nM.

As to `CC(C)(C)OC(=O)NC(C(=O)N1C[C@H]2[C@@H]([C@H]1C(=O)NC(C#N)c1cncc(Br)c1)C2(C)C)C(C)(C)C` (some centres unmarked) [GDI-001], the IC50 in data set [1] amounted to 80 nM. In data set [3], this compound had an AUC(0-inf) of 1830 ng·h/mL, an area under the curve AUC(0-t) of 1810 ng·h/mL, a Cmax of 630 ng/mL and a half-life of 140 min. The compound further yielded a CC50 at 48 h in data set [2] of more than 39800 nM. Besides, the EC50 with SARS-CoV-2 (setting [4]) came out at 462 nM.

Turning to `CC(C)(C)[C@H](NC(=O)C(F)(F)F)C(=O)N1C[C@H]2[C@@H]([C@H]1C(=O)NC(C#N)c1cncc(Br)c1)C2(C)C` (stereo partly drawn) [GDI-011, (1R,2S,5S)-N-((5-bromopyridin-3-yl) (cyano)methyl)-3-((S)-3,3-dimethyl-2-(2,2,2-trifluoroacetylamino)butyryl)-6,6-dimethyl-3-aza bicyclo[3.1.0]hexane-2-carboxamide], the IC50 in data set [1] stood at 78 nM. Further, in data set [3], the AUC(0-inf) worked out at 3470 ng·h/mL, the AUC(0-t) stood at 3450 ng·h/mL, the concentration peaked (Cmax) at 1870 ng/mL and the half-life is 63 min. Besides, the CC50 at 48 h in data set [2] was more than 39800 nM. Moreover, the EC50 in the data set on SARS-CoV-2 (setting [5]) is 613 nM.

In the case of `CC(C)(C)[C@H](N)C(=O)N1C[C@H]2[C@@H]([C@H]1C(=O)NC(C#N)c1cncc(Br)c1)C2(C)C` (stereo partly drawn) [GDI-002, (1R,2S,5S)-3-((S)-2-amino-3,3-dimethylbutyryl)-N-((5-bromopyridin-3-yl)(cyano)methyl)-6,6-dimethyl-3-azabicyclo[3.1.0]he xane-2-carboxamide formate], in data set [1], the IC50 worked out at 320 nM. Moreover, the CC50 at 48 h in data set [2] is more than 39800 nM. The EC50 with SARS-CoV-2 (setting [5]) is 7860 nM.

In the case of `COc1cncc(C(C#N)NC(=O)[C@@H]2[C@@H]3[C@H](CN2C(=O)[C@@H](NC(C)=O)C(C)(C)C)C3(C)C)c1` (stereo partly drawn) [GDI-008, (1R,2S,5S)-3-((S)-2-acetamido-3,3-dimethylbutyryl)-N-(cyano(5-methoxypyridin-3-yl)methyl)-6,6-dimethyl-3-azabicyclo[3.1.0]he xane-2-carboxamide], the half-inhibitory concentration (IC50) in data set [1] came out at 37 nM. In data set [2], this compound displayed a CC50 at 48 h of more than 39800 nM. For the same compound, in the data set with SARS-CoV-2 (setting [4]), the EC50 is 417 nM.

For the compound `CC(=O)N[C@H](C(=O)N1C[C@H]2[C@@H]([C@H]1C(=O)NC(C#N)c1cncc(C(F)(F)F)c1)C2(C)C)C(C)(C)C` (stereo partly drawn) [GDI-007, (1R,2S,5S)-3-((S)-2-acetamido-3,3-dimethylbutanol)-N-(cyano(5-(trifluoromethyl)pyridin-3-yl)methyl)-6,6-dimethyl-3-azabicyclo [3.1.0]hexane-2-carboxamide], the IC50 in data set [1] came to 170 nM. In data set [2], this compound gave a half-maximal cytotoxic concentration (CC50) at 48 h of more than 39800 nM. In addition, the EC50 with SARS-CoV-2 (setting [4]) was 512 nM.

Turning to `CC(=O)N[C@H](C(=O)N1C[C@H]2[C@@H]([C@H]1C(=O)NC(C#N)c1cncc3ccccc13)C2(C)C)C(C)(C)C` (stereo partly drawn) [GDI-006, (1R,2S,5S)-3-((S)-2-acetamido-3,3-dimethylbutyryl)-N-(cyano(isoquinolin-4-yl)methyl)-6,6-dimethyl-3-azabicyclo[3.1.0]hexane-2-carboxamide], the IC50 in data set [1] was 28 nM. Also, in data set [3], the AUC(0-inf) worked out at 1700 ng·h/mL, the AUC(0-t) came out at 1690 ng·h/mL, the Cmax came to 2170 ng/mL and the half-life is 52.5 min. In data set [2], this compound registered a CC50 at 48 h of more than 39800 nM. Besides, the EC50 in the data set on SARS-CoV-2 (setting [4]) amounted to 28 nM.

Regarding `CC(=O)N[C@H](C(=O)N1C[C@H]2[C@@H]([C@H]1C(=O)NC(C#N)c1cncc(C#N)c1)C2(C)C)C(C)(C)C` (stereo partly drawn) [GDI-010, (1R,2S,5S)-3-((S)-2-acetamido-3,3-dimethylbutyryl)-N-(cyano(5-cyanopyridin-3-yl)methyl)-6,6-dimethyl-3-azabicyclo[3.1.0]hexane-2-carboxamide], the IC50 in data set [1] was found to be 330 nM. In data set [2], this compound displayed a CC50 at 48 h of more than 39800 nM. Moreover, the EC50 with SARS-CoV-2 (setting [4]) worked out at 5720 nM.

With `CC(=O)N[C@H](C(=O)N1C[C@H]2[C@@H]([C@H]1C(=O)N[C@@H](C#N)c1cncc3ccccc13)C2(C)C)C(C)(C)C` [GDI-037], the IC50 in data set [1] stood at 40 nM. The CC50 at 48 h in data set [2] is more than 39800 nM. Moreover, the EC50 in the data set with SARS-CoV-2 (setting [4]) is 30 nM.

Consider `CC(=O)N[C@H](C(=O)N1C[C@H]2[C@@H]([C@H]1C(=O)N[C@H](C#N)c1cncc3ccccc13)C2(C)C)C(C)(C)C` [GDI-036], for which, in data set [1], the IC50 was 20 nM. This compound displayed a CC50 at 48 h in data set [2] of more than 39800 nM. Moreover, the EC50 with SARS-CoV-2 (setting [4]) was found to be 20 nM.

For the compound `CC(C)(C)[C@H](NC(=O)C(F)(F)F)C(=O)N1C[C@H]2[C@@H]([C@H]1C(=O)NC(C#N)c1cncc(C#N)c1)C2(C)C` (stereo partly drawn) [GDI-014, (1R,2S,5S)-N-(cyano(5-cyanopyridin-3-yl)methyl)-3-((S)-3,3-dimethyl-2-(2,2,2-trifluoroacetylamino)butyryl)-6,6-dimethyl-3-azabicycl o[3.1.0]hexane-2-carboxamide], the IC50 in data set [1] was 46 nM. Besides, in data set [3], the AUC(0-inf) turned out to be 7820 ng·h/mL, the AUC(0-t) was determined as 7800 ng·h/mL, the concentration peaked (Cmax) at 5000 ng/mL and the half-life was 49.9 min.

As for “(1R,2S,5S)-N-(cyano(5-(3-methyl-1,2,4-oxadiazol-5-yl)pyridin-3-yl)methyl)-3-(S)-3,3-dimethyl-2-(2,2,2-trifluoroacetylamino) butyryl)- 6,6-dimethyl-3-azabicyclo[3.1.0]hexane-2-carboxamide [GDI-017]”, the IC50 in data set [1] turned out to be 46 nM. Besides, the CC50 with Hela-ACE cells is more than 39800 nM. Also, in the data set with SARS-CoV-2 (Hela-ACE cells infected with SARS-CoV-2 (USA-WA1/2020), 48 hours), the EC50 was found to be 660 nM.

`CC(=O)N[C@H](C(=O)N1C[C@H]2[C@@H]([C@H]1C(=O)NC(C#N)c1cncc(C)c1)C2(C)C)C(C)(C)C` (stereo partly drawn) [GDI-005, (1R,2S,5S)-3-((S)-2-acetamido-3,3-dimethylbutyryl)-N-(cyano(5-methylpyridin-3-yl)methyl)-6,6-dimethyl-3-azabicyclo[3.1.0]hex ane-2-carboxamide]: the IC50 in data set [1] was determined as 80 nM. Further, the CC50 at 48 h in data set [2] is more than 39800 nM. The EC50 in the data set with SARS-CoV-2 (setting [4]) turned out to be 117 nM.
